This assay has as its target T1, CRHR1 receptor (Y79 cells) (Homo sapiens, UniProt P34998).
T1 construct: host or cells: Y79 human retinoblastoma cells
T1 sequence (P34998 24-415): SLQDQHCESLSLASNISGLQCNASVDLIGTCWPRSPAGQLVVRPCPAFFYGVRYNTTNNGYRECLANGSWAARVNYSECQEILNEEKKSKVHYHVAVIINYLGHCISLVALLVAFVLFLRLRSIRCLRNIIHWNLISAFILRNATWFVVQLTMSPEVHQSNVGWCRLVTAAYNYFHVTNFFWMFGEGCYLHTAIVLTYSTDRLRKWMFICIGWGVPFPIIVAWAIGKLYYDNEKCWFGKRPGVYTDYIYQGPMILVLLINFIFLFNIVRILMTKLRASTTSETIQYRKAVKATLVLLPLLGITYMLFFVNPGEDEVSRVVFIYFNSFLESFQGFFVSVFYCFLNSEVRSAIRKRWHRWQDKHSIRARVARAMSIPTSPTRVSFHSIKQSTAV
Put plainly: Human Y79 cAMP assay (native cell line expressing endogenous CRHR1). The format is cell-based. To be noted: human Y79 cells (CRHR1, no detectable CRHR2); mean ± SE. As to the method:
Y79 cells, a human retinoblastoma cell line, express a high level of human CRHR1 with no detectable CRHR2. A7r5 cells, a rat aortic smooth muscle cell line, only express CRHR2 receptor with no detectable CRHR1. The rat CRHR2 gene shares 93% homology of nucleotides sequences with human CRHR2 and responds to human UCN2. Therefore, these two native cell lines were used for additional characterization of polypeptide selectivity.
Y79 cells were grown in a suspension culture as recommended by ATCC in the media containing RPMI (Gibco Cat #11875093) and 20% FBS (Gibco dialyzed Cat #26400044). Y79 cells were incubated at 37° C. with 5% CO2. A subcultivation was performed by removing the supernatant after centrifugation and suspending the cell pellet in fresh medium (A subcultivation ratio was 1:5). […]
The amount of intracellular cAMP was quantitated using HTRF technology (Homogeneous Time Resolved Fluorescence; Cisbio) as per vendor instructions. […] The HTRF signal was immediately detected using an Envision plate reader (Perkin-Elmer) to calculate the ratio of fluorescence at 665 to 620 nm. […]
Raw fluorescence data for concentration curves of the peptides in Table 2 and Table 3 were converted to cAMP amount (pmol/well) using a cAMP standard curve generated for each experiment.
Background: cAMP levels reflect the balance of adenylyl cyclase and phosphodiesterase activity.

These results are taken from patent US20250163119A1, “COMPOUNDS FOR THE TREATMENT OF DIABETES OR OBESITY” (Eli Lilly and Company, priority 2023, published 2025).

Structures are written as SMILES. *1 amine or outer side, *2 acyl side, *3 side chain or, on linkers, in order; H or OH if unused. Where a SMILES comes first, the peptide text is derived from it. Side-chain parts run from the residue outwards. [ ]: non-standard residue; d: D form. The star is where a group is joined. C20 diacid = O=C(O)CCCCCCCCCCCCCCCCCCC(=O)*; γGlu = O=C(O)[C@H](CCC(=O)[*:2])N[*:1]; NMeI = CC[C@H](C)[C@H](NC)C(=O)O; αMeL = CC(C)C[C@](C)(N)C(=O)O; AEEA = NCCOCCOCC(=O)O

A word on the EC50: it is the concentration needed to bring the measured effect to its halfway point. A high value points to a need for much substance.

For `CC[C@H](C)[C@H](NC)C(=O)N[C@H](C(=O)N[C@H](C(=O)N[C@@H](CO)C(=O)N[C@@H](CC(C)C)C(=O)N[C@@H](CC(=O)O)C(=O)N[C@H](C(=O)N1CCC[C@H]1C(=O)N[C@H](C(=O)NCC(=O)N[C@@](C)(CC(C)C)C(=O)N[C@@H](CC(C)C)C(=O)N[C@@H](CCC(N)=O)C(=O)N[C@@H](CCCCN)C(=O)N[C@@H](CC(C)C)C(=O)N[C@H](C(=O)N[C@@H](CCC(=O)O)C(=O)N[C@@H](CCC(N)=O)C(=O)N[C@@H](CCC(=O)O)C(=O)N[C@@H](CCCCN)C(=O)N[C@@H](CCC(N)=O)C(=O)N[C@@H](CCC(=O)O)C(=O)N[C@@H](CCCCN)C(=O)N[C@@H](CCC(=O)O)C(=O)N[C@@H](CCCCN)C(=O)N[C@@H](CCC(N)=O)C(=O)N[C@@H](CCC(N)=O)C(=O)N[C@@H](C)C(=O)N[C@@H](CCCCNC(=O)COCCOCCNC(=O)COCCOCCNC(=O)CC[C@H](NC(=O)CCCCCCCCCCCCCCCCCCC(=O)O)C(=O)O)C(=O)N[C@@H](CCC(=O)O)C(=O)N[C@@H](CC(N)=O)C(=O)N[C@H](C(=O)N[C@@H](CCC(=O)O)C(=O)N[C@H](C(=O)N[C@@H](CC(C)C)C(=O)N[C@@H](C)C(=O)N[C@@H](CCC(N)=O)C(=O)N[C@H](C(N)=O)C(C)C)[C@@H](C)CC)[C@@H](C)O)[C@@H](C)CC)[C@@H](C)CC)C(C)C)[C@@H](C)O)C(C)C` [SEQ ID NO: 49, (NMeI) VTSLDVPIG αMeL LQKLIEQEKQEKEKQQAK((2-[2-(2-Amino-ethoxy)-ethoxy]-acetyl)2-γE-CO-(CH2)18-CO2H)ENTEILAQV-NH2] (H-[NMeI]VTSLDVPIG[αMeL]LQKLIEQEKQEKEKQQAK([AEEA-AEEA-γGlu-C20 diacid])ENTEILAQV-NH2), the EC50 is above 1e+07 pM.

Regarding `CC[C@H](C)[C@H](NC)C(=O)N[C@H](C(=O)N[C@H](C(=O)N[C@@H](CO)C(=O)N[C@@H](CC(C)C)C(=O)N[C@@H](CC(=O)O)C(=O)N[C@H](C(=O)N1CCC[C@H]1C(=O)N[C@H](C(=O)NCC(=O)N[C@@](C)(CC(C)C)C(=O)N[C@@H](CC(C)C)C(=O)N[C@@H](CCC(N)=O)C(=O)N[C@@H](CCCCN)C(=O)N[C@@H](CC(C)C)C(=O)N[C@@H](CC(C)C)C(=O)N[C@@H](CCC(=O)O)C(=O)N[C@@H](CCC(N)=O)C(=O)N[C@@H](CCC(=O)O)C(=O)N[C@@H](CCCNC(=N)N)C(=O)N[C@@H](C)C(=O)N[C@@H](CCC(=O)O)C(=O)N[C@@H](CCCCN)C(=O)N[C@@H](C)C(=O)N[C@@H](CCCNC(=N)N)C(=O)N[C@@H](CCC(N)=O)C(=O)N[C@@H](CCC(N)=O)C(=O)N[C@@H](C)C(=O)N[C@@H](CCCCNC(=O)COCCOCCNC(=O)COCCOCCNC(=O)CC[C@H](NC(=O)CCCCCCCCCCCCCCCCCCC(=O)O)C(=O)O)C(=O)N[C@@H](CCC(=O)O)C(=O)N[C@@H](C)C(=O)N[C@@H](C)C(=O)N[C@@H](CCC(=O)O)C(=O)N[C@H](C(=O)N[C@@H](CC(C)C)C(=O)N[C@@H](C)C(=O)N[C@@H](CCC(N)=O)C(=O)N[C@H](C(N)=O)C(C)C)[C@@H](C)CC)[C@@H](C)CC)C(C)C)[C@@H](C)O)C(C)C` [SEQ ID NO: 50, (NMeI) VTSLDVPIG αMeL LQKLLEQERAEKARQQAK((2-[2-(2-Amino-ethoxy)-ethoxy]-acetyl)2-γE-CO-(CH2)18-CO2H)EAAEILAQV-NH2] (H-[NMeI]VTSLDVPIG[αMeL]LQKLLEQERAEKARQQAK([AEEA-AEEA-γGlu-C20 diacid])EAAEILAQV-NH2), the EC50 is above 1e+07 pM.
